Ends that are not written are not given here.
Assays:
[1] = tested on: autophagy cells (rapamycin-treated HeLa or MDA-MB-231 cells); test: Immunofluorescent staining of phage clones on rapamycin-treated cells; type: cell-based; details: phage clones displaying the peptide; rapamycin 4 hr; anti-M13 immunofluorescence (FIG. 4)
Experimental: A phage clone with high specificity for binding to autophagy cells was selected through phage binding ELISA for autophagy cells. More specifically, For binding of each phage clone in vitro, cells were seeded at 2×10^4 cells/well in a 96-well culture plate and cultured in 80˜90% confluence. And then cells were treated with rapamycin in serum-free medium for 4 hours, then washed with PBS and blocked with 1% BSA for 30 minutes at room temperature. The treated cells were then incubated with each phage clone (1×10^9 pfu/well). The pool of a phage library was used as a control. After 1 hour incubation at 4° C. with a phage clone, the cells were washed again with PBS and fixed with […] (in DMEM). Next, HRP-conjugated anti-M13 phage monoclonal antibody (1:3000 dilution, NEB) was added to M13 phage and incubated at room temperature for one hour. The cells were washed three times with PBS, and the TMB substrate (100/well) was treated for 2-10 min for color development and the reaction was terminated by treatment with 2M H2SO4. The final color product was measured at 450 nm wavelength in microtitration plate reader (Sunrise, Tecan Austria) using a windows based program XFluor4.
Further, after the phage clones selected for the rapamycin-treated cells were cultured as described above, immunofluorescent staining was performed using a mouse monoclonal antibody to M13 phage (mouse anti-M13 monoclonal antibody, diluted 1:3000) and Alexa 549-labeled antibody (Alexa 549-conjugated anti-mouse IgG antibody, abcam) against the mouse antibody as a secondary antibody in a conventional manner to confirm the attachment specificity and effect of the phage clones, and used for screening. […] The four peptide sequences of the clones is as follows; CKHHLGAIC (AtgPep-1, SEQ ID NO: 1), CQQTKNYYC (AtgPep-2, SEQ ID NO: 2), CNTGSPYEC: SEQ ID NO: 3 (AtgPep-3, SEQ ID NO: 3), CPPNTDRSC (AtgPep-4, SEQ ID NO: 4). […] It was confirmed that the phage clones displaying AtgPep-1 to AtgPep-4 specifically bind to autophagy cells respectively. In particular, it was confirmed that the phage clones specifically bind to the autophagy cells even in the initial (4 hr) autophagy state.

[2] = tested on: pEGFP-LC3-transfected MDA-MB-231 cells treated with EBSS; test: Detection of autophagy cells in the early stages of autophagy induction, fluorescence microscopy; type: cell-based; details: for fluorescence signal on early autophagy cells: Rhodamine B-labeled peptide 10 μmol/L, 4° C. 1 hour, EBSS 2 hours (FIG. 6); for site of binding on autophagy-induced cells: rhodamine-labeled peptide, single MDA-MB-231 cell (FIGS. 7A and 7B)
Experimental: (§1) pEGFP-LC3-transfected MDA-MB-231 cells were cultured on an eight-chamber slide and were treated with EBSS (Earl's balanced salt solution) for 2 hours to induce autophagy. Cells were then washed with PBS and treated with 10 μmol/L of each solution of Rhodamine B-labeled AtgPep-1 to AtgPep-4 (provided in PBS diluted) and incubated at 4° C. for 1 hour. Then 1% BSA was treated at 4° C. for 1 hour. The cells were fixed with 4% paraformaldehyde for 5 minutes. The cells were then stained with […] (DAPI) and mounted on a fluorescence microscope (Zeiss, Oberkochen, Germany).

[3] = tested on: HeLa cell, Chang cell and BEAS-2B cell; test: Detection of autophagy cells in other cell types, fluorescence microscopy; type: cell-based; details: rhodamine B labeled, BEAS-2B cells (FIG. 8)
Experimental: as §1
In order to verify that the peptide of the present invention acts also on other tissues or cells other than the MDA-MB-231 cell line, autophagy was induced in several kinds of cells (derived from different tissues) and their detection ability was confirmed using AtgPep-1 (CKHHLGAIC; SEQ ID NO: 1) and AtgPep-2 (CQQTKNYYC: SEQ ID NO: 2) which represent particularly high signals among AtgPep-1 to AtgPep-4. The experimental method is the same as described above.

[4] = tested on: MDA-MB-231 tumor tissue after rapamycin autophagy induction; test: Microscopy of tumor frozen sections for peptide target signal; type: in vivo, nude mouse; details: flamma 675-labeled peptide; five hours after the peptide injection; frozen sections (FIG. 10)
Experimental: After five hours of the peptide injection, the image were acquired. Then the mice were sacrificed and the tumors were separated and frozen sections of tissues were prepared. Six μm-thickness tumor frozen sections were stained with DAPI for nuclear staining and immunostained with LC3 antibody for autophagy induction. The signal of flamma 675 (FPR675) dye, LC3 and DAPI were observed as red, green and blue under a microscope, respectively.

[5] = tested on: A549, HT1376, MDA-MB-231, HeLa and BEAS-2B cell lines; test: Western blotting of LC3 I and LC3 II for autophagy level; type: cell-based; details: chloroquine treated together with rapamycin, 4 hours; all the cells (FIG. 1)
Experimental: After 4 hours, the cells were washed two times with 1×PBS, followed by a western blotting was carried out to investigate the protein levels of LC3 I and LC3 II (hereinafter referred to as, LC3 I/II). In order to perform the western blotting, the cells were first lysed with RIPA buffer with 1/ml protease inhibitor cocktail in the drug-treated cells. The whole cell extracts were fractionated by SDS-PAGE, and transferred to a nitrocellulose membrane using a dry blot (Bio-Rad). The membranes were incubated with TBST (10 mM Tris, pH 8.0, 150 mM NaCl, 0.5% Tween 20) containing 5% nonfat milk for 60 minutes, then washed once with TBST. The membrane was treated with rabbit antibody against human LC3 I/II (abcam) and stirred overnight at 4° C. The membrane was washed 3 times for 10 min with TBST, then was incubated for 1 hour with the HRP-labeled antibody (mouse anti-rabbit IgG-HRP, Santa Cruz, Inc.) against the rabbit antibody isolated from a mouse as a secondary antibody (1:3000 dilution). After washing three times with TBST and developing according to the protocol of the manufacturer of the ECL system (Amersham Biosciences), an image was detected with a luminescent image analyzer (LAS100 Plus, Fujifilm, Japan).

[6] = tested on: MDA-MB-231 tumor after rapamycin autophagy induction; test: In vivo NIRF imaging of autophagy in tumor animal model; set-up: species or system nude mouse; details: flamma 675-labeled peptide, tail vein, 50 μM; 4 to 5 hours after peptide injection; rapamycin 1.5 mg per kg i.p. (FIG. 9)
Experimental: As an experiment for monitoring and imaging autophagy using a peptide probe, tumor cells were transplanted into immunodeficient nude mice to grow tumors, and animal models for experiments were constructed. The MDA-MB-231 cell (10^6 cells), which was verified in the results of FIGS. 7A and 7B of the present invention, was injected into the femoral region of the nude mouse, and it was confirmed that the size of the tumor was 80 mm^3 after 10 days. In order to induce autophagy, rapamycin was injected intraperitoneally into each mouse in an amount of 1.5 mg per kg of the mouse. Two hours after the injection of rapamycin, AtgPep-2 (CQQTKNYYC: SEQ ID NO: 2) of the present invention, labeled with flamma 675 (=FPR675, Bioact Co., Korea), a near-infrared fluorescent (NIRF) was administered to each mouse (N=5 To 7) via tail vein at a final 50 μM concentration/mouse, while being allowed to circulate along the blood for 2 hours to obtain optical and fluorescence imaging at 2 hours, 4 hours, and 5 hours after the administration of the peptide. As a control, CNSSSVDKC peptide (Control, SEQ ID NO: 10) labeled with flamma 675 was injected at the same concentration and method. NIRF imaging signals were scanned and acquired using an IVIS imaging system (Caliper Life Sciences, Massachusetts, USA).

| Compound | binding specificity of phage clones to autophagy cells [1] | fluorescence signal on early autophagy cells [2] | site of binding on autophagy-induced cells [2] | targeting to autophagy cells in other cell types [3] | target signal in the tumor tissue [4] | also measured |
| --- | --- | --- | --- | --- | --- | --- |
| CKHHLGAIC (Artificial Amino acid sequence of AtgPep-1) | high binding specificity to autophagy cells | strong fluorescence signals | bound to the cell membrane of the autophagy cell | specifically targeted to autophagy cells regardless of cell types | – | – |
| CNSSSVDKC (not fully specified; cysteine pairing not given here; also: flamma 675 label) [control peptide labeled with flamma 675, reference compound] | – | – | – | – | target signal was not present | – |
| CCN(CC)CCCC(C)Nc1ccnc2cc(Cl)ccc12 (centres unmarked) [chloroquine] | – | – | – | – | – | production of LC3 II protein [5]: further increased |
| CNTGSPYEC (Artificial Amino acid sequence of AtgPep-3) | high binding specificity to autophagy cells | – | – | – | – | – |
| CPPNTDRSC (Artificial Amino acid sequence of AtgPep-4) | high binding specificity to autophagy cells | – | – | – | – | – |
| CQQTKNYYC (Artificial Amino acid sequence of AtgPep-2) | high binding specificity to autophagy cells | strong fluorescence signals | bound to the cell membrane of the autophagy cell | specifically targeted to autophagy cells regardless of cell types | significantly higher | tumor targeting in NIRF imaging versus control peptide [6]: significantly higher level |

— patent US10421780B2, “Peptide for targeting autophagic cells and use thereof” (Kyungpook National University Industry-Academic Cooperation …, priority 2015, dated 2019)
